As to `CCOC(=O)COc1cc2ccsc2c(Cl)c1Cl`, the melting point is 92 to 93 °C. Next, `CCOC(=O)/C=C\C(=O)Oc1cccc(-c2cn3c(n2)sc2ccccc23)c1`: 126 to 128 °C; `O=C1CC(c2ccccc2)Cc2[nH]ccc(=O)c21` (stereo not given): 207 to 209 °C; `O=C(O)c1ccc(-c2nc3ccccc3s2)nc1`: greater than 300 °C. Next, `CCOC(=O)c1cc(Cl)c(-n2nc(CC)c(C#N)c2N)c(Cl)c1`: 173 to 175 °C; `CC(C)Oc1cc(CCCOc2ncccc2CC(=O)O)n(Cc2ccc(Cl)cc2Cl)n1`: 88 to 90 °C; `O=CNc1ccsc1I`: 100 to 107 °C. Next, `O=C(NC1CCCCCCC1)NC1CCCCC1`: 194 °C; `CC(C)c1cccc(C(C)C)c1NC(=O)[C@H](C)NC(c1ccccc1)c1ccccc1`: 134 to 138 °C. As to `Cc1cc2c(cc1C(=O)c1ccccc1Cl)OC(C(=O)O)O2` (stereo not given), the melting point is 133 to 135 °C.

`CS(=O)(=O)Nc1ccc(C(N)=O)cc1Oc1ccc(F)cc1F` registered a melting point of 147 to 150 °C.

In the case of `C[C@@H]1Cc2ccsc2[C@H](C)N1CCCNC(=O)c1ccc(NS(C)(=O)=O)cc1` (relative stereo), the melting point was 148 to 150 °C. Next, `CCOc1cc(Nc2cccc3c2C(=O)N(C2CCC(=O)NC2=O)C3=O)ccc1OC` (stereo not given): 162 to 164 °C. Next, `COc1ccc2ccccc2c1C(Nc1ccccc1C)C(N)=O` (stereo not given): 195 °C; `CS(=O)c1ccc2[nH]c3cc(C(=O)Nc4nnn[nH]4)nn3c(=O)c2c1` (stereo not given): greater than 350 °C; `CCCCc1nn(-c2cc(NC(=O)CC)ccc2Cl)c(C#N)c1Cc1ccc(-c2ccccc2S(=O)(=O)NC(=O)OC(C)(C)C)cc1F`: greater than 95 °C. Turning to `CON=C(C[N+](=O)[O-])NCc1cccnc1`, the melting point is 77 to 78 °C.

Take `CC(C)C[C@@H]1NC(=O)O[C@H]1CCS(=O)(=O)CCc1ccccc1`: the melting point is 100 to 101 °C. `CCN1C(=O)C(C)(C)C(=O)N(C)c2cc(CN(CCn3ccc4oc(C)cc4c3=O)Cc3ccccc3C=O)ccc21`: the melting point is 157 to 158 °C.

In turn, `CSc1nn(C)c(=O)n1Cc1cc(-c2ccccc2)ccc1C` returned a melting point of 95.6 °C. Next, `CC(=O)NNC1=Nc2sc(Cl)cc2C(c2ccccc2Cl)=NC1`: 211 to 213 °C; `CNc1c(NCCSCc2csc(CN(C)C)n2)c(=O)c1=O`: 163 to 167 °C. Next, `O=S(=O)(c1ccc(Cl)cc1)N1CCCC1c1cccc(F)c1` (racemic): 126 °C; `COc1ccc(N2CCN(Cc3cc4ccccc4[nH]c3=O)CC2)cc1`: 263 to 266 °C.

Turning to `OCCCc1cccc(OCc2coc(/C=C/c3ccccc3)n2)c1`, the melting point lay within 57 to 58 °C. In turn, `CCCCCCCCCCCCCCc1ccc(OCC(CO)OC)cc1` (stereo not given) gave a melting point of 43 to 45 °C. Next, `O=Cc1ccc2noc(-c3cccc(Cl)c3)c2c1`: 148 °C; `COc1ccc(CNc2cc3c(Nc4ccc(Br)c(Br)c4)ncnc3cn2)cc1`: 166 to 169 °C. Next, `O=C(O)CCc1cccc(CCc2nc(-c3ccccc3)c(-c3ccccc3)o2)c1`: 119 to 120 °C; `N#CC(C(=O)Nc1ccccc1)C(=O)c1nn(-c2ccccc2)c2c1CSc1ccccc1-2` (stereo not given): 228 to 230 °C. The molecule `O=c1nc(NO)ccn1C1OC(CO)C(O)C1O` (stereo not given) returned a melting point of 173 to 176 °C. Next, `CCOC(=O)CCC1(NC(=O)c2ccc(Cl)c(Cl)c2)C(=O)N(CC(=O)O)c2ccccc21` (stereo not given): 219 to 220 °C. Next, `CC(=O)c1ccc(Cl)c(S(=O)(=O)N(C)C)c1`: 108 °C. Next, `Fc1cccc(-c2nc3cc(Br)ccn3n2)c1`: 186 to 188 °C; `CCCCc1nc2cccc(C(=O)O)c2n1Cc1ccc(-c2ccccc2S(=O)(=O)NC(=O)NCC2CC2)cc1`: 234 to 236 °C.

Molecule `Cc1onc(-c2ccco2)c1-c1ccccc1` displayed a melting point of 93 to 96 °C.

`CNc1nc(O)cc(O)n1`: the melting point was 290 °C. Next, `CC(=O)Nc1ccc(S(=O)(=O)Nc2nnc(CO)s2)cc1`: 101 to 102 °C; `O=C1c2cccc(O)c2C2(OCCS2)c2c(O)cccc21`: 197 to 199 °C.

As to `CCOC(=O)CN1C(=O)[C@@H](NC(=O)OC(C)(C)C)CC(=O)c2ccccc21`, the melting point was in the range of 86 to 88 °C. Next, `C[C@@H](NCCOCc1ccccc1)[C@](O)(Cn1cncn1)c1ccc(Cl)cc1Cl` (relative stereo): 105 to 107 °C; `CCn1c(=O)n(C)c(=O)c2c(C(=O)N3C[C@](C)(O)CO3)c(Cn3c(C)nc(Cl)c3Cl)sc21`: 130 to 133 °C. Next, `CCOC(=O)C1=C(N2CCCC2)N=C(C)C(C(=O)OCC)C1c1ccccc1` (stereo not given): 57 °C; `CS(=O)(=O)c1ccc(C(CC2CCCC2)C(=O)Nc2ccc(Br)cn2)cc1[N+](=O)[O-]` (stereo not given): 80 to 83 °C; `Clc1ccc(CNc2cccnc2)cc1`: 107 to 108 °C. Next, `Cc1cc(=S)cc(C)n1CCN`: 162 to 164 °C.

In turn, `Nc1cc(=O)n(Cc2ccc3ccccc3c2)[nH]1` registered a melting point of 156 to 157 °C.

Molecule `CO/C=C(/C(=O)OC)c1ccccc1Oc1cccc(N)c1` showed a melting point of 83 to 85 °C. `COC(=O)c1ccc(N2CCNCC2)nc1` registered a melting point of 91 to 92 °C.

Molecule `N#CSc1ccc(F)c(C#N)c1` gave a melting point of 39 to 41 °C. Molecule `O=P(O)(O)C(NCc1ccccc1)c1ccccc1` (stereo not given) returned a melting point of 233 to 236 °C. The molecule `O=C(NCc1cccc(C(F)(F)F)c1)c1cncc2c1cnn2-c1ccc(F)cc1` registered a melting point of 172 to 173 °C. Next, `COc1ccc(C(=O)CCCCCl)cc1S(=O)(=O)NC(C)C`: 122 to 124 °C. Next, `COCc1nc2ncccc2n1Cc1ccc(C(=O)N(C(C)C)C2CCCCC2)cc1OC`: 117 to 118 °C. Next, `O=C(Nc1cnc2sc3c(c2c1-c1ccccc1Cl)CCC3)c1ccc(F)cc1F`: 219 to 220 °C; `CCCN1NCc2c(C3C(=O)Nc4ccc(C(F)(F)F)cc43)ncnc21` (stereo not given): 293 to 295 °C. In turn, `Cc1cccc(-c2n[nH]cc2-c2ccc(F)c(-c3c[nH]c(CC(C)(C)O)n3)c2)n1` showed a melting point of 136 to 140 °C.

`Cc1oc2cc(CO)ccc2c1C` returned a melting point of 78 to 79 °C. Next, `COc1cc2c(c3c1OC(C)(C)C3)C(c1ccn(Cc3ccc(C(=O)NCCO)cc3)c(=O)c1)=NC(C)(C)C2`: 220 to 222 °C; `CCOC(=O)/C(=N\OC1(C)CCCCC1)c1csc(N)n1`: 126 °C; `O=c1ccc2c(-c3cccc(O)c3)nccc2[nH]1`: 297 to 299 °C. Next, `CC(C)(Cc1c[nH]c2ccc(Br)cc12)[N+](=O)[O-]`: 106 to 109 °C. Regarding `Cc1cc(N2CCN(c3ccncc3)CC2)ccc1OCCCC(=O)O`, the melting point is 261 to 262 °C.

For `CC=C1CCC(C(=O)OC)C(C(=O)OC)C1` (stereo not given), the melting point fell in the range of 162 to 163 °C. Next, `COc1ccc2c(c1)C(=O)C(=O)C1=C2OC2(CCN(CC(O)COc3ccc(F)cc3)CC2)CS1` (stereo not given): 189 to 191 °C; `COC(=O)c1ccc(CC23CCCN2C(=O)N(c2cc(Cl)c(O)c(Cl)c2)C3=O)cc1` (stereo not given): 105 °C. Consider `CCCn1c(-c2ccc(-n3ccnc3)cc2)cnc1[C@H](Cc1ccccn1)N(C=O)c1cc2cc(Br)ccc2o1`, for which the melting point was 93 to 99 °C.

On to `CC(C)c1csc(CO)n1`, for which the melting point was 80 to 82 °C. `O=C1c2c(Cl)cccc2-n2cnc(-c3noc(CCl)n3)c2[C@@H]2CCCN12` returned a melting point of 184 to 186 °C.

As for `CC(=O)N1c2ccccc2-c2c([N+](=O)[O-])cnn2C1c1ccc(Cl)cc1` (stereo not given), the melting point was 183 to 184 °C. Next, `Cc1nc(-c2cc(C(=O)O)c(=O)[nH]c2C)cs1`: 297 to 299 °C; `COc1cc(OC)cc(N2CCN(C(=O)N(C)c3nc4ccccc4nc3OC)CC2)c1`: 143 to 144 °C. Take `COc1ccc(S(=O)(=O)N2CCc3cccc(-c4cccc(F)c4)c32)cc1`: the melting point lay within 180 to 181 °C. Next, `CC1CC(=O)NN=C1c1ccc2c(c1)OCC(=O)N2` (stereo not given): greater than 300 °C. Next, `CC(C)(C)c1cc(Cn2c(=O)n(Cc3cc(C(C)(C)C)c(O)c(C(C)(C)C)c3)c(=O)n(Cc3cc(C(C)(C)C)c(O)c(C(C)(C)C)c3)c2=O)cc(C(C)(C)C)c1O`: 218 to 219 °C. Next, `O=Cc1ccc(OCc2cccc(Cl)c2)cc1`: 51 to 54 °C; `CC(=O)NC[C@H]1CN(c2ccc(N3CCC(O)(CN4CCNCC4)CC3)c(F)c2)C(=O)O1`: 175 to 177 °C.

For `COc1cncc(-c2ccc(OC3SCC(O)C(O)C3O)cn2)c1` (stereo not given), the melting point came out at 193 °C. Next, `CC(C)(C)c1cc(Cl)nc(N)n1`: 87.7 to 88.9 °C; `Cc1nsc(N(C)C(=O)C2CCCCC2)n1`: 96 °C; `CN1C(=O)CN(C(=O)CCl)C(c2ccccc2)c2cc(Cl)ccc21` (stereo not given): 197 to 200 °C. Next, `NCC(CC(=O)O)c1ccc(Cl)c(Cl)c1` (stereo not given): 202 to 204 °C; `CCCCn1c(=Nc2ccccc2)sc2ncccc2c1=O`: 68 to 69 °C.

As for `NC(=O)c1ccc(-c2ccc3nnn(Cc4cc5cccnc5cc4F)c3n2)cc1Cl`, the melting point was 202 to 204 °C. Next, `CC(C)(C)OC(=O)NC1CCCCc2cc(OCC3CCCCC3)c(C(N)=O)cc21` (stereo not given): 193 to 194 °C. `COC(=O)CC(=O)NCc1cc(Br)cc2[nH]c(=O)c(=O)[nH]c12`: the melting point was greater than 300 °C. The molecule `COc1cc(/C=C/C=O)c([N+](=O)[O-])cc1OC` came in with a melting point of 103 to 105 °C. `N#Cc1sc2cc([N+](=O)[O-])ccc2c1Cl`: the melting point is 204 to 205 °C. Next, `CCCc1c(OCCCCC(=O)N(C)C)ccc(C(C)=O)c1O`: 95 to 97 °C. Next, `CC(C)Oc1cccc(OC(=O)NCc2c(-c3ccccc3)c3cc(Cl)ccc3c(=O)n2C)c1`: 158 to 160 °C.

Usually melting point stands for the temperature of the solid-liquid transition.

Values taken from a melting point compilation (Tetko et al.; mined from patent text by program, amines drawn as free bases though some values may be those of a salt).
